Reference: publication PMC3367910 (PLoS ONE, 2012)

Test system: T1, chlorpyrifos hydrolase (CPH)
T1 construct: native enzyme purified from mycelial cell extract; N-terminal MEPDGELSALTQGANS; gene not cloned
Assay type: biochemical, Cladosporium cladosporioides

| SMILES | Km [µM] |
| --- | --- |
| CCOP(=S)(OCC)Oc1nc(Cl)c(Cl)cc1Cl [Chlorpyrifos, O, O-diethyl O-(3,5,6-trichloro-2-pyridyl) phosphorothioate] | 6.8 ± 0.4 |
| CCOC(=O)CC(SP(=S)(OC)OC)C(=O)OCC (centres unmarked) [Malathion] | 44.4 ± 2.1 |
| COP(N)(=O)SC (centres unmarked) [Methamidophos] | 31.8 ± 1.7 |
| COP(=S)(OC)Oc1ccc([N+](=O)[O-])cc1 [Methyl parathion] | 12.5 ± 1.4 |
| CCOP(=S)(OCC)Oc1ccc([N+](=O)[O-])cc1 [Parathion] | 9.8 ± 0.3 |
